Molecular target: T1, Tankyrase 1 (Homo sapiens, UniProt O95271)
T1 sequence (O95271 1-1327): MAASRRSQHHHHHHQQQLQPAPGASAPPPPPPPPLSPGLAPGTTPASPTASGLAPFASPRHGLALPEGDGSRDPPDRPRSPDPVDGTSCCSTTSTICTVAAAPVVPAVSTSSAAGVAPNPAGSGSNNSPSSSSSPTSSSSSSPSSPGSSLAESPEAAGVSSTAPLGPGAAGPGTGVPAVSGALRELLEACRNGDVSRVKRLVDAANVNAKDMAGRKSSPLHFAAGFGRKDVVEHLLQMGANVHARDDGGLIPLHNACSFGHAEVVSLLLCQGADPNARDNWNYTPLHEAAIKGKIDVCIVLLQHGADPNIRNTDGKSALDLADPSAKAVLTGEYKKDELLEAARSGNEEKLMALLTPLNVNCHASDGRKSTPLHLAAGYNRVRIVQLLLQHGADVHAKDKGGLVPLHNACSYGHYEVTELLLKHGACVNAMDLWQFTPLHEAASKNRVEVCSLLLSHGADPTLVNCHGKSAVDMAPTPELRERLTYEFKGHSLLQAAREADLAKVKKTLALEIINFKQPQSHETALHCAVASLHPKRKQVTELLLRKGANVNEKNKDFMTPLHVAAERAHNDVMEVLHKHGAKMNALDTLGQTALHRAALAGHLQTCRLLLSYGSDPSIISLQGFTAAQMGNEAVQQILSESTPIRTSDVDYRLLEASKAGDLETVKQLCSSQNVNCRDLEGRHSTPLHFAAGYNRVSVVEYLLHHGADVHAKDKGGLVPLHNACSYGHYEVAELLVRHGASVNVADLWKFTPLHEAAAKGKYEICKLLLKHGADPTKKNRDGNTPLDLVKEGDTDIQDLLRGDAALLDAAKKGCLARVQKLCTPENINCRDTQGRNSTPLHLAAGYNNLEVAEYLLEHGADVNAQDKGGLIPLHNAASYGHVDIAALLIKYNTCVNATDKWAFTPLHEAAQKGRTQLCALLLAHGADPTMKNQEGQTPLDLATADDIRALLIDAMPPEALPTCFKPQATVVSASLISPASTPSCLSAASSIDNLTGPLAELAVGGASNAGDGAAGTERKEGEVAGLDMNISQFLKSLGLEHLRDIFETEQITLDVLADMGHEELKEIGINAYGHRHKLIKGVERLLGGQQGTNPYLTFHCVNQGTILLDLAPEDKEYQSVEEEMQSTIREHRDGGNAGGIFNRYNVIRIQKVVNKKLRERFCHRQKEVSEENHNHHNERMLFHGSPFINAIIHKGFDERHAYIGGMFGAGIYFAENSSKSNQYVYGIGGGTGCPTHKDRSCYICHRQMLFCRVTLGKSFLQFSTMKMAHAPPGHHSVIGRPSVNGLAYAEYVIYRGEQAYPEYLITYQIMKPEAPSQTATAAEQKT
Assay: TNKS1 NAM assay (NADase activity, released nicotinamide by LC-MS)
Format: biochemical
Conditions: Table I, value marked with superscript 2 (footnote not given), taken as the second assay
Description: NADase activity of Tankyrase 1 was measured by quantifying released nicotinamide using liquid chromatography mass spectrometry. Varying concentrations of experimental compounds were incubated in 10 μL reactions containing 25 nM recombinant Tankyrase 1, 1 mM NAD+, 5 μM d4-nicotinamide internal standard, 2% DMSO, 50 mM Tris pH 7.5, 5 mM CaCl2, and 0.01% Triton X-100 for 1 h at RT. Reactions were quenched by mixing 2 μL of the reaction mixture with 98 μL of 0.05% formic acid. 1 μL of quenched reaction was loaded onto a reverse phase BEH-Phenyl column (Waters) pre-equilibrated with 1 mM ammonium formate and eluted with a linear gradient to 80% acetonitrile. Compound IC50s were determined by four-parameter curve fitting.
Representative compound data for assays are listed below in Table I. Values are in uM.

IC50: 9.67 nM
SMILES: COCCOc1cc(F)c(N2CCN(c3nc4c(ccn4CCO)c(=O)[nH]3)CC2)c(F)c1 [Example 63, 2-[4-[2 6-difluoro-4-(2-methoxyethoxy)phenyl]piperazin-1-yl]-7-(2-hydroxyethyl)-3H-pyrrolo[2,3-d]pyrimidin-4-one]
